Values after ≈ are worked out from the molar mass of the structure shown. “Also recorded” adds a separate entry of the source. Read-outs that look alike come from different tables or passages of the source.
What was measured:
M. tuberculosis H37Rv [1] = experiment: MIC by BACTEC 460; type: cell-based, Mycobacterium tuberculosis; details: Mycobacterium tuberculosis, H37RV; read-out: MIC (BACTEC)
[2] = PK, tissue distribution, excretion and metabolism of compound 109 in mice; type: in vivo; design: Amount cumulatively excreted, Feces / Amount cumulatively excreted, Urine: unit not given here; details: for half-life: read-out: T1/2 el (converted)
Protocol: Initially, analytical methods for determination of the compounds had been developed that allowed to carry out all the PK experiments, sec FIG. 29. Here is a brief description of the experiment: (1) plasma spiked with tested compounds and 10 uL of Terfenadine or plasma samples (200 uL) added; (2) ACN (2 mL) added to precipitate protein and spin at 2,500 rpm; (3) evaporate supernatant to dryness; (4) add 200 uL of the diluting solvent: methanol (with 0.1% of trifluoroacetic acid): ammonium acetate (80/20); (5) vortex, spin, and use supernatant; (6) run LC/MS/MS on Sciex API 3000.
Conjugated metabolites are products of the typical metabolic pathway N-glucoronidation formed by reaction with glucuronic acid (D. A. Williams and T. L. Lemke in Foye's Principals of Medicinal Chemistry, 5th Ed., p.202).

human CYP2C19 = human CYP2C19 (Homo sapiens, UniProt P33261); experiment: Metabolism by CYP2C19; type: in vitro ADME
Chain of human CYP2C19 (P33261 whole entry): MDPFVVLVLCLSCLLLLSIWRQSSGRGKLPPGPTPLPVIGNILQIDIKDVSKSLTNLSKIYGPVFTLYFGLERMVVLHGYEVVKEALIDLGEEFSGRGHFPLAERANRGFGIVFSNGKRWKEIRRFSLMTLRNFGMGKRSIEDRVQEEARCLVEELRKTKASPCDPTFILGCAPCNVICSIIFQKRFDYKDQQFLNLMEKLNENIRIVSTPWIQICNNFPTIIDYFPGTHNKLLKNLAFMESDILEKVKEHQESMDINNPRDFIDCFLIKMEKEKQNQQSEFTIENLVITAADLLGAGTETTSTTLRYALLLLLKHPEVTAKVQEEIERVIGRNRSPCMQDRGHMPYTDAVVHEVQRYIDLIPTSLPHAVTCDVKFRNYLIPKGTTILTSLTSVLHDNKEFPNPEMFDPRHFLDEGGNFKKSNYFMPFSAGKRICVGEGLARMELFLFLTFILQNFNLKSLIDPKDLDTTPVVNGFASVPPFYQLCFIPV
From the text: Two of the groups contained oxidized metabolites. […] Based on the finding that SQ109 was metabolized rapidly by CYP, it is possible that its antimycobacterial activity may come from one of its metabolites. It is conceivable that SQ109 is a prodrug and requires activation by mycobacterial CYP. We speculate that when SQ109 is used in combination with rifampicin, the latter induces certain CYP activity within the Mycobacteria. Elevated CYP activity activates the SQ109 prodrug more efficiently, resulting in an apparent synergistic activity of the two drugs.

Dopamine DA transporter = molecular target: T1, Dopamine DA transporter (Homo sapiens, UniProt Q01959); experiment: CEREP transporter binding, DA; details: tested at 10 μM; read-out: inhibition of control specific binding
T1 construct: CEREP (contract testing)
T1 sequence (Q01959 whole entry): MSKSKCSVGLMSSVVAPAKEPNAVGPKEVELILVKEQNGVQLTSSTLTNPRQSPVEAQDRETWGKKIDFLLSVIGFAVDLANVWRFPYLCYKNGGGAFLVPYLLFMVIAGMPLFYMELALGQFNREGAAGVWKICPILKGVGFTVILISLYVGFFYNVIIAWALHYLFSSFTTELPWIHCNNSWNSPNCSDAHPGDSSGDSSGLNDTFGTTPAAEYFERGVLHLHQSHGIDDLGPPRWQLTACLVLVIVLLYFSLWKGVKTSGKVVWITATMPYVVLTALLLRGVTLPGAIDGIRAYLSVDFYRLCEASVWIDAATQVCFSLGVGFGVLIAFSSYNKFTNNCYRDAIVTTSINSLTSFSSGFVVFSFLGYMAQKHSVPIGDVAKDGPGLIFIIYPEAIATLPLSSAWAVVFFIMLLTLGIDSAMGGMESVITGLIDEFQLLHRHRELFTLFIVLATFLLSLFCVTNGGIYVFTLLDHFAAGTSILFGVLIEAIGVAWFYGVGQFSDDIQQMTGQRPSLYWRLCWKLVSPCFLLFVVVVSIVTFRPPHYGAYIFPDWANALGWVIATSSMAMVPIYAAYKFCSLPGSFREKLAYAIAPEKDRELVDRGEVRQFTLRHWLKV
From the text: In vitro testing for safety pharmacology and early ADMET (Absorption, Distribution, Metabolism, Excretion, Toxicity) studies of compound 109 were contracted out to CEREP (15318 NE 95th Street, Redmond, Wash., 98052, USA www.cerep.com) under a service agreement and included evaluation of inhibitory binding to a panel of 27 standard receptors and three transporters (See FIG. 60 (Table 31) and FIG. 61 (Table 32)) which included: adenosine receptors (A1 and A2A), adrenergic receptors (alpha 1, alpha 2, beta 1), angiotensin II receptor (AT1), benzodiazapene receptor (BZD), bradykinin receptor (B2), cholecystokinin receptor (CCK1), dopamine receptors (D1, D2S), endothelin receptor (ETA), GABA receptor (GABA), glutamate receptor (NMDA), histamine receptor (H1 central), melanocortin receptor (MC4), muscarinic receptor (M, non-selective), neurokinin receptor (NK1), neuropeptide Y receptor (Y), nicotinic receptor (neuronal, alpha-BGTX-insensitive), opiate receptor (non-selective opiate), orphanin receptor (ORL1), phencyclidine receptor (PCP), serotonin receptor (5-HT), sigma receptor (sigma non-selective), steroid receptor (glucocorticoid receptor, GR), and NE, DA, and 5-HT transporters.
The specific ligand binding to the receptors is defined as the difference between the total binding and the nonspecific binding determined in the presence of an excess of unlabelled ligand.

M. avium complex (MAC) = experiment: Spectrum of activity MIC, MOTT, agar proportion method; type: cell-based; details: Mycobacterium avium; three isolates
[3] = system: RIF^R M. tuberculosis isolate 3185; experiment: microbe, parasite or virus in culture; type: cell-based
M. tuberculosis H37Rv [4] = experiment: Two-drug combination growth inhibition, BACTEC 460, x/y quotient; type: cell-based; details: for interaction of SQ109 with isoniazid: both drugs at 0.5 MIC
cells = experiment: LD50 for selectivity index (Table 10); type: cell-based, Mycobacterium tuberculosis
From the text: Table 10 lists MIC and LD50 data for selected compounds. […] Table 11 lists MIC data for purified substituted ethylene diamines in comparison to ethambutol (EMB).

in vitro = in vitro ADME; details: plasma
[5] = sub-MIC concentrations, listed as SQ109

CC(C)=CCC/C(C)=C/CNCCNC1C2CC3CC(C2)CC1C3 (centres unmarked) [Compound 109, N-Geranyl-N′-(2-adamanthyl)ethane-1,2-diamine]
MIC (M. tuberculosis H37Rv [1]): 0.32 µg/mL (≈ 0.968 µM) | Amount cumulatively excreted, Feces ([2]; 3 mg/kg i.v., 0-4 h): <0.01 | Amount cumulatively excreted, Urine ([2]; 3 mg/kg i.v., 0-4 h, unit not given): <0.01 | Amount cumulatively excreted, Feces ([2]; 3 mg/kg i.v., 4-8 h): 0.01 | Amount cumulatively excreted, Urine ([2]; 3 mg/kg i.v., 4-8 h): <0.01 | Amount cumulatively excreted, Feces ([2]; 3 mg/kg i.v., 8-24 h): 0.04 | Amount cumulatively excreted, Urine ([2]; 3 mg/kg i.v., 8-24 h): 0.03 | Amount cumulatively excreted, Feces ([2]; 3 mg/kg i.v., 24-32 h): <0.01 | Amount cumulatively excreted, Urine ([2]; 3 mg/kg i.v., 24-32 h): 0.01 | Amount cumulatively excreted, Feces ([2]; 3 mg/kg i.v., Total 0-32 h): 0.06 | Amount cumulatively excreted, Urine ([2]; 3 mg/kg i.v., Total 0-32 h): 0.04 | Amount cumulatively excreted, Feces ([2]; 25 mg/kg p.o., 0-4 h): 0.48 | Amount cumulatively excreted, Feces ([2]; 25 mg/kg p.o., 4-8 h): 0.31 | Amount cumulatively excreted, Feces ([2]; 25 mg/kg p.o., 8-24 h): 1.12 | Amount cumulatively excreted, Feces ([2]; 25 mg/kg p.o., 24-32 h): 0.08 | Amount cumulatively excreted, Feces ([2]; 25 mg/kg p.o., Total 0-32 h): 2.0 | tissue distribution ([2]; i.v. 3 mg/kg, p.o. 25 mg/kg): primarily distributes into the lungs and spleen | plasma level relative to MBC ([2]; iv or p.o.): reaches and exceeds its Minimum Bactericidal Concentration | metabolites (breakdown products) in urine ([2]; mouse urine): did not provide evidence of breakdown products | conjugated (N-glucoronidation) metabolites in urine ([2]; mouse urine, first 24 hr): No glucoronidation metabolites; also recorded: no evidence for the formation of conjugated metabolites | total amount after excretion (urine and feces) ([2]; mouse, in vivo): ≤ 3 % of the delivered dose | total clearance ([2]; mouse, in vivo): less than hepatic blood flow | AUC ([2]; mouse, in vivo, iv, 3 mg/kg): 792 ng·h/mL | Cmax ([2]; mouse, in vivo, iv, 3 mg/kg): 1040 ng/mL | Tmax ([2]; mouse, in vivo, iv, 3 mg/kg): 0 h | clearance ([2]; mouse, in vivo, iv, 3 mg/kg): 63.1 mL/min/kg | half-life ([2]; mouse, in vivo, iv, 3 mg/kg): 3.5 h | Vd ([2]; mouse, in vivo, iv, 3 mg/kg, read-out: Vdss): 11.8 L/kg | AUC ([2]; mouse, in vivo, po, 25 mg/kg): 254 ng·h/mL | Cmax ([2]; mouse, in vivo, po, 25 mg/kg): 135 ng/mL | Tmax ([2]; mouse, in vivo, po, 25 mg/kg): 0.31 h | bioavailability ([2]; mouse, in vivo, po, 25 mg/kg): 3.8% | half-life ([2]; mouse, in vivo, po, 25 mg/kg): 5.2 h | metabolism by CYP (human CYP2C19): metabolized | inhibition at 10 µM (Dopamine DA transporter): 63% | MIC (M. avium complex (MAC)): 8 to 32 µg/mL (≈ 24.2 to 96.8 µM) | MIC ([3]; Mycobacterium tuberculosis, read-out: MIC (BACTEC)): 0.32 µg/mL (≈ 0.968 µM) | MIC (BACTEC) ([3]; isolate 3185): 0.32 µg/mL (≈ 0.968 µM) | growth inhibition of inoculum (M. tuberculosis H37Rv [4]; 0.5 MIC SQ109 in combination with 0.1 MIC RIF): greater than 99% | Synergy quotient (x/y) (M. tuberculosis H37Rv [4]; SQ109 1/10 MIC + INH ½ MIC): 1 | Synergy quotient (x/y) (M. tuberculosis H37Rv [4]; SQ109 1/10 MIC + MOX ½ MIC): 1 | Synergy quotient (x/y) (M. tuberculosis H37Rv [4]; SQ109 1/10 MIC + MOX ⅕ MIC): 1 | Synergy quotient (x/y) (M. tuberculosis H37Rv [4]; SQ109 1/10 MIC + RIF 1/10 MIC): 1 | Synergy quotient (x/y) (M. tuberculosis H37Rv [4]; SQ109 1/10 MIC + RIF 1/20 MIC): 1 | Synergy quotient (x/y) (M. tuberculosis H37Rv [4]; SQ109 1/10 MIC + RIF ¼ MIC): 1 | Synergy quotient (x/y) (M. tuberculosis H37Rv [4]; SQ109 1/10 MIC + RIF ½ MIC): 0.16 | Synergy quotient (x/y) (M. tuberculosis H37Rv [4]; SQ109 1/10 MIC + SM ½ MIC): 0.98 | Synergy quotient (x/y) (M. tuberculosis H37Rv [4]; SQ109 1/20 MIC + INH ½ MIC): 1 | Synergy quotient (x/y) (M. tuberculosis H37Rv [4]; SQ109 1/20 MIC + MOX ½ MIC): 1 | Synergy quotient (x/y) (M. tuberculosis H37Rv [4]; SQ109 1/20 MIC + MOX ⅕ MIC): 1 | Synergy quotient (x/y) (M. tuberculosis H37Rv [4]; SQ109 1/20 MIC + RIF 1/10 MIC): 1 | Synergy quotient (x/y) (M. tuberculosis H37Rv [4]; SQ109 1/20 MIC + RIF 1/20 MIC): 1 | Synergy quotient (x/y) (M. tuberculosis H37Rv [4]; SQ109 1/20 MIC + RIF ¼ MIC): 1 | Synergy quotient (x/y) (M. tuberculosis H37Rv [4]; SQ109 1/20 MIC + RIF ½ MIC): 0.32 | Synergy quotient (x/y) (M. tuberculosis H37Rv [4]; SQ109 1/20 MIC + SM ½ MIC): 1 | Synergy quotient (x/y) (M. tuberculosis H37Rv [4]; SQ109 ½ MIC + INH ½ MIC): 0.45 | Synergy quotient (x/y) (M. tuberculosis H37Rv [4]; SQ109 ½ MIC + MOX ½ MIC): 0.45 | Synergy quotient (x/y) (M. tuberculosis H37Rv [4]; SQ109 ½ MIC + MOX ⅕ MIC): 0.51 | Synergy quotient (x/y) (M. tuberculosis H37Rv [4]; SQ109 ½ MIC + RIF 1/10 MIC): 0.29 | Synergy quotient (x/y) (M. tuberculosis H37Rv [4]; SQ109 ½ MIC + RIF 1/20 MIC): 0.61 | Synergy quotient (x/y) (M. tuberculosis H37Rv [4]; SQ109 ½ MIC + RIF ¼ MIC): 0.23 | Synergy quotient (x/y) (M. tuberculosis H37Rv [4]; SQ109 ½ MIC + RIF ½ MIC): 0.12 | Synergy quotient (x/y) (M. tuberculosis H37Rv [4]; SQ109 ½ MIC + SM ½ MIC): 0.57 | Synergy quotient (x/y) (M. tuberculosis H37Rv [4]; SQ109 ⅕ MIC + INH ½ MIC): 0.83 | Synergy quotient (x/y) (M. tuberculosis H37Rv [4]; SQ109 ⅕ MIC + MOX ½ MIC): 0.96 | Synergy quotient (x/y) (M. tuberculosis H37Rv [4]; SQ109 ⅕ MIC + MOX ⅕ MIC): 1 | Synergy quotient (x/y) (M. tuberculosis H37Rv [4]; SQ109 ⅕ MIC + RIF 1/10 MIC): 1 | Synergy quotient (x/y) (M. tuberculosis H37Rv [4]; SQ109 ⅕ MIC + RIF 1/20 MIC): 1 | Synergy quotient (x/y) (M. tuberculosis H37Rv [4]; SQ109 ⅕ MIC + RIF ½ MIC): 0.4 | Synergy quotient (x/y) (M. tuberculosis H37Rv [4]; SQ109 ⅕ MIC + SM ½ MIC): 0.74 | interaction of SQ109 with isoniazid (M. tuberculosis H37Rv [4]; listed as SQ 109): strong synergistic activity | interaction of SQ109 with isoniazid (M. tuberculosis H37Rv [4]; listed as SQ109): synergy | interaction of SQ109 with pyrazinamide (M. tuberculosis H37Rv [4]; sub-MIC concentrations, PZA Test Medium, listed as SQ109): neither synergy nor additive effects; also recorded: did not show any positive interaction | interaction of SQ109 with rifampicin (M. tuberculosis H37Rv [4]; sub-MIC concentrations, listed as SQ 109): strong synergistic activity | interaction of SQ109 with ethambutol (M. tuberculosis H37Rv [4]; [5]): neither synergy nor additive effects; also recorded: did not show any positive interaction; also recorded: no interaction | interaction of SQ109 with rifampicin (M. tuberculosis H37Rv [4]; [5]): marked synergy | interaction of SQ109 with streptomycin (M. tuberculosis H37Rv [4]; [5]): additive effect; also recorded: only additive interaction | SI (Selectivity Index) (cells; LD50 : MIC): 16.39 | LD50 (cells; concentration at which 50% of the cells are killed): 32 µM | LD50 (cells; from uM and MW): 14.4 µg/mL | fraction unbound at 20 ng/ml (in vitro): 0.85 | fraction unbound at 200 ng/ml (in vitro): 0.26 | fraction unbound at 2000 ng/ml (in vitro): 0.52

From US8202910B2 (Sequella, Inc., priority 2006, dated 2012)
